We go through 49 compounds from patent US10676446B2, “Bicyclic quinazolinone derivatives” (Hoffmann-La Roche Inc., priority 2015, dated 2020).

For this test, the target named is human ATX (autotaxin, ENPP2), His-tagged (Homo sapiens (Human), UniProt Q13822). Briefly: Human ATX enzyme inhibition assay (fluorescence quenching, MR121 substrate). To be noted: 30 nM ATX, 1 μM MR121 substrate, 30° C., pH 8.0. Format: biochemical. In a few lines: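 His-tagged human ATX (30 nM final) preincubated 15 min at 30 °C with serially diluted compound in Tris-HCl pH 8.0 buffer with Ca2+, Mg2+ and 0.01% Triton X-100. MR121-labelled fluorescence-quenched substrate then added (1 μM final) for a further 15 min at 30 °C; fluorescence read-out.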
For the compound `O=C(Cn1cnc2ccc(N3CCN(CC(O)CO)CC3)cc2c1=O)NCc1ccc(Cl)c(Cl)c1` (stereo not shown) [Example 95], the IC50 came to 0.068 µM. `COCCC(NC(=O)Cn1cnc2ccc(N3CCN(C(C)=O)CC3)cc2c1=O)c1ccc(Cl)c(Cl)c1` (stereo not shown) [Example 153, 2-[6-(4-Acetylpiperazin-1-yl)-4-oxoquinazolin-3-yl]-N-[1-(3,4-dichlorophenyl)-3-methoxypropyl]acetamide] displayed an IC50 of 0.036 µM.

`CC(=O)N1CCN(c2ccc3[nH]c(=O)n(CC(=O)NCc4ccc(Cl)c(Cl)c4)c(=O)c3c2)CC1` [Example 152, 2-[6-(4-Acetylpiperazin-1-yl)-2,4-dioxo-1H-quinazolin-3-yl]-N-[(3,4-dichlorophenyl)methyl]acetamide] showed an IC50 of 0.18 µM. As to `Cc1noc(C)c1NC(=O)N1CCN(c2ccc3ncn(CC(=O)NCc4ccc(Cl)c(Cl)c4)c(=O)c3c2)CC1` [Example 86], the IC50 was determined as 0.133 µM. In the case of `CC(C)CC(=O)N1CCN(c2ccc3ncn(CC(=O)NCc4ccc(Cl)c(Cl)c4)c(=O)c3c2)CC1` [Example 59, N-[(3,4-Dichlorophenyl)methyl]-2-[6-[4-(3-methylbutanoyl)piperazin-1-yl]-4-oxoquinazolin-3-yl]acetamide], the IC50 turned out to be 0.07 µM. As for `CNC(=O)CCN(Cc1ccc(Cl)c(Cl)c1)C(=O)Cn1cnc2ccc(N3CCN(C(C)=O)CC3)cc2c1=O` [Example 55, 3-[[2-[6-(4-Acetylpiperazin-1-yl)-4-oxoquinazolin-3-yl]acetyl]-[(3,4-dichlorophenyl)methyl]amino]-N-methylpropanamide], the figure is 0.038 µM. Compound `CC(=O)N1CCN(c2ccc3ncn(CC(=O)N(CCC(=O)O)Cc4ccc(Cl)c(Cl)c4)c(=O)c3c2)CC1` [Example 54, 3-[[2-[6-(4-Acetylpiperazin-1-yl)-4-oxoquinazolin-3-yl]acetyl]-[(3,4-dichlorophenyl)methyl]amino]propanoic acid] came in with an IC50 of 0.831 µM. As for `CC(=O)N1CCN(c2ccc3ncn(CC(=O)NCc4ccc(C#N)cc4OCC(F)(F)F)c(=O)c3c2)CC1` [Example 33], the figure is 0.245 µM; as for `COCCN1CCN(c2ccc3ncn(CC(=O)N(C)Cc4ccc(Cl)c(Cl)c4)c(=O)c3c2)CC1` [Example 105], 0.059 µM. The compound `O=C(Cn1cnc2ccc(N3CCN(Cc4ncc[nH]4)CC3)cc2c1=O)NCc1ccc(Cl)c(Cl)c1` [Example 100] registered an IC50 of 0.204 µM. This IC50 lies about 3.5-fold higher than the previous one. The compound `CN(Cc1ccc(Cl)c(Cl)c1)C(=O)Cn1cnc2ccc(N3CCN(S(=O)(=O)C4CC4)CC3)cc2c1=O` [Example 91] came in with an IC50 of 0.03 µM. The compound `CN(Cc1ccc(Cl)c(Cl)c1)C(=O)Cn1cnc2ccc(N3CCN(C(=O)C4CC(F)(F)C4)CC3)cc2c1=O` [Example 75] gave an IC50 of 0.005 µM. This IC50 lies about 6-fold lower than the previous one. In the case of `C[C@@H](O)C(=O)N1CCC(c2ccc3ncn(CC(=O)N(C)Cc4ccc(Cl)c(Cl)c4)c(=O)c3c2)CC1` [Example 174], half-maximal inhibition (IC50) required 0.002 µM. Compared with the last compound, the IC50 is about 2.5-fold lower. In turn, `CN(Cc1ccc(Cl)c(C#N)c1)C(=O)Cn1cnc2ccc(C3CCN(CC4CCOC4)CC3)cc2c1=O` (stereo not shown) [Example 144, N-[(4-Chloro-3-cyanophenyl)methyl]-N-methyl-2-[4-oxo-6-[1-(oxolan-3-ylmethyl)piperidin-4-yl]quinazolin-3-yl]acetamide] registered an IC50 of 0.086 µM. With `CC(=O)N1CCN(c2ccc3ncn(CC(=O)NCc4ccc(S(C)(=O)=O)c(C)c4)c(=O)c3c2)CC1` [Example 40], it took 1.56 µM to reach half-maximal inhibition (IC50).

In turn, `O=C(Cn1cnc2ccc(N3CCN(CC4CCC4)CC3)cc2c1=O)NCc1ccc(Cl)c(Cl)c1` [Example 96] came in with an IC50 of 0.011 µM. Compared with the last compound, the IC50 is about 140-fold lower.

For `CC(=O)N1CCN(c2ccc3ncn(CC(=O)NCc4ccc(C#N)cc4Cl)c(=O)c3c2)CC1` [Example 29], the 50% inhibitory concentration (IC50) amounted to 0.175 µM.

As to `CC(=O)N1CCN(c2ccc3ncn(CC(=O)NCc4ccc(Cl)c(Cl)c4)c(=O)c3c2)CC1` [Example 22], the IC50 stood at 0.091 µM. Compound `CC(C)C(=O)N1CCN(c2ccc3ncn(CC(=O)N(C)Cc4ccc(Cl)c(Cl)c4)c(=O)c3c2)CC1` [Example 69] gave an IC50 of 0.003 µM.

Regarding `CN(Cc1ccc(Cl)c(Cl)c1)C(=O)Cn1cnc2ccc(N3CCN(CC(=O)Nc4ccccc4)CC3)cc2c1=O` [Example 112], half-maximal inhibition (IC50) required 0.071 µM. This IC50 lies about 24-fold higher than the previous one. Regarding `COCC(=O)N1CCC(c2ccc3ncn(CC(=O)N(Cc4ccc(Cl)c(Cl)c4)C4CC4)c(=O)c3c2)CC1` [Example 146, N-Cyclopropyl-N-[(3,4-dichlorophenyl)methyl]-2-[6-[1-(2-methoxyacetyl)piperidin-4-yl]-4-oxoquinazolin-3-yl]acetamide], the IC50 came out at 0.001 µM. This IC50 is about 71-fold lower than that of the compound before. Consider `O=C(Cn1cnc2ccc(N3CCN(S(=O)(=O)C4CCCCC4)CC3)cc2c1=O)NCc1ccc(Cl)c(Cl)c1` [Example 90], for which half-maximal inhibition (IC50) was put at 0.035 µM.

Consider `CC(=O)N1CCN(c2ccc3ncn(CC(=O)NC(CC(=O)N(C)C)c4ccc(C(F)(F)F)cc4)c(=O)c3c2)CC1` (stereo not shown) [Example 5], for which the IC50 amounted to 0.121 µM. Compared with the last compound, the IC50 is about 3.5-fold higher. As for `CC(=O)N1CCN(c2ccc3ncn(C(C)C(=O)N(C)Cc4ccc(Cl)c(Cl)c4)c(=O)c3c2)CC1` (stereo not shown) [Example 149, 2-[6-(4-Acetylpiperazin-1-yl)-4-oxoquinazolin-3-yl]-N-[(3,4-dichlorophenyl)methyl]-N-methylpropanamide], the figure is 0.039 µM. Compound `CC(=O)N1CCN(c2ccc3ncn(CC(=O)NC(CC(=O)NCc4ccccc4)c4ccc(C(F)(F)F)cc4)c(=O)c3c2)CC1` (stereo not shown) [Example 8] had an IC50 of 0.279 µM. In the case of `COCCC(=O)N1CCC(c2cc(F)c3ncn(CC(=O)N(C)Cc4ccc(C#N)c(Cl)c4)c(=O)c3c2)CC1` [Example 188, N-[(3-Chloro-4-cyanophenyl)methyl]-2-[8-fluoro-6-[1-(3-methoxypropanoyl)piperidin-4-yl]-4-oxoquinazolin-3-yl]-N-methylacetamide], it took 0.001 µM to reach half-maximal inhibition (IC50). In the case of `CC(=O)N1CCN(c2ccc3ncn(CC(=O)N(C)Cc4ccc(Cl)c(Cl)c4)c(=O)c3c2)CC1` [Example 44], the IC50 came to 0.017 µM. The same measure for `O=C(Cn1cnc2ccc(N3CCN(S(=O)(=O)C4CCCC4)CC3)cc2c1=O)NCc1ccc(Cl)c(Cl)c1` [Example 89]: 0.02 µM; for `CC(=O)N1CCN(c2ccc3ncn(CC(=O)NC(CC(=O)Nc4ccccc4)c4ccc(Cl)cc4)c(=O)c3c2)CC1` (stereo not shown) [Example 3]: 0.198 µM. The compound `Cc1nc(C)c(CN2CCN(c3ccc4ncn(CC(=O)NCc5ccc(Cl)c(Cl)c5)c(=O)c4c3)CC2)o1` [Example 103] had an IC50 of 0.288 µM. As for `CN(Cc1ccc(C#N)c(Cl)c1)C(=O)Cn1cnc2ccc(C3CCN(C(=O)C4CC(F)C4)CC3)cc2c1=O` (stereo not shown) [Example 138], the IC50 came out at 0.003 µM. In turn, `CN(Cc1ccc(Cl)c(Cl)c1)C(=O)Cn1cnc2ccc(C3CCN(C(=O)c4cnco4)CC3)cc2c1=O` [Example 183] had an IC50 of 0.028 µM. This IC50 is about 9.3-fold higher than that of the compound before. As for `CN(Cc1ccc(C#N)c(Cl)c1)C(=O)Cn1cnc2ccc(N3CCN(CC4CCOC4)CC3)cc2c1=O` (stereo not shown) [Example 114, N-[(3-Chloro-4-cyanophenyl)methyl]-N-methyl-2-[4-oxo-6-[4-(oxolan-3-ylmethyl)piperazin-1-yl]quinazolin-3-yl]acetamide], the figure is 0.026 µM. Compound `CC(=O)N1CCN(c2ccc3nc(C)n(CC(=O)NCc4ccc(Cl)c(Cl)c4)c(=O)c3c2)CC1` [Example 151, 2-[6-(4-Acetylpiperazin-1-yl)-2-methyl-4-oxoquinazolin-3-yl]-N-[(3,4-dichlorophenyl)methyl]acetamide] registered an IC50 of 0.021 µM. The IC50 values of the last two compounds are within 1.5-fold of each other. `CC(=O)N1CCC(c2ccc3ncn(CC(=O)N(C)Cc4ccc(Cl)c(OC(F)(F)F)c4)c(=O)c3c2)CC1` [Example 128, 2-[6-(1-Acetylpiperidin-4-yl)-4-oxoquinazolin-3-yl]-N-[[4-chloro-3-(trifluoromethoxy)phenyl]methyl]-N-methylacetamide] had an IC50 of 0.015 µM. This IC50 and that of the compound before are within 1.5-fold of each other. On to `CN(Cc1ccc(Cl)c(Cl)c1)C(=O)Cn1cnc2ccc(C3CCN(C(=O)C4(C)CCCO4)CC3)cc2c1=O` (stereo not shown) [Example 181], for which the 50% inhibitory concentration (IC50) came out at 0.008 µM. `NS(=O)(=O)CC(=O)N1CCN(c2ccc3ncn(CC(=O)NCc4ccc(Cl)c(Cl)c4)c(=O)c3c2)CC1` [Example 71] yielded an IC50 of 0.026 µM. For `CNC(=O)CC(NC(=O)Cn1cnc2ccc(N3CCN(C(C)=O)CC3)cc2c1=O)c1ccc(Cl)c(Cl)c1` (stereo not shown) [Example 52, 3-[[2-[6-(4-Acetylpiperazin-1-yl)-4-oxoquinazolin-3-yl]acetyl]amino]-3-(3,4-dichlorophenyl)-N-methylpropanamide], the IC50 turned out to be 0.072 µM. Compound `CC(=O)N1CCN(c2ccc3ncn(CC(=O)NCc4cccc([N+](=O)[O-])c4)c(=O)c3c2)CC1` [Example 37] showed an IC50 of 0.073 µM. The same measure for `CC(=O)N1CCN(c2ccc3ncn(CC(=O)NCc4ccc(Cl)c(OC(F)(F)F)c4)c(=O)c3c2)CC1` [Example 38]: 0.004 µM.

`CN(Cc1ccc(Cl)c(Cl)c1)C(=O)Cn1cnc2ccc(N3CCN(C(=O)C4CC(Cl)C4)CC3)cc2c1=O` (stereo not shown) [Example 77] yielded an IC50 of 0.003 µM. Compound `CC(=O)N1CCN(c2ccc3ncn(CC(=O)NC(CC(=O)N(C)C)c4ccc(Cl)cc4)c(=O)c3c2)CC1` (stereo not shown) [Example 2] yielded a 50% inhibitory concentration (IC50) of 0.36 µM. With `CC(=O)N1CCN(c2ccc3ncn(CC(=O)NCc4ccc(C(F)(F)F)cc4)c(=O)c3c2)CC1` [Example 17], the IC50 came to 0.137 µM. Compared with the last compound, the IC50 is about 2.6-fold lower. As for `CC(=O)N1CCN(c2ccc3ncn(CC(=O)NCc4ccc5c(c4)OCO5)c(=O)c3c2)CC1` [Example 15], the figure is 0.415 µM; as for `CC(=O)N1CCN(c2ccc3ncn(CC(=O)NCc4ccc(S(F)(F)(F)(F)F)cc4)c(=O)c3c2)CC1` [Example 39], 0.012 µM. In the case of `CN(Cc1ccc(Cl)c(Cl)c1)C(=O)Cn1cnc2ccc(N3CCN(C(=O)C4CCC4)CC3)cc2c1=O` [Example 73], the IC50 is 0.006 µM. The compound `COC(C)C(=O)N1CCC(c2ccc3ncn(CC(=O)N(C)Cc4ccc(C#N)c(Cl)c4)c(=O)c3c2)CC1` (stereo not shown) [Example 133] gave an IC50 of 0.001 µM. As for `O=C(Cn1cnc2ccc(N3CCN(CC4CCOCC4)CC3)cc2c1=O)NCc1ccc(Cl)c(Cl)c1` [Example 98], the figure is 0.044 µM. Regarding `CCC(=O)N1CCN(c2ccc3ncn(CC(=O)N(C)Cc4ccc(Cl)c(Cl)c4)c(=O)c3c2)CC1` [Example 68], the midpoint of inhibition, the IC50, lay at 0.004 µM.
